pIC50, pKi: −log10 of the molar value.
Biological target: T1, Bifunctional ligase/repressor BirA (Staphylococcus aureus, UniProt A0A3A5LBF0)
T1 sequence (A0A3A5LBF0 whole entry): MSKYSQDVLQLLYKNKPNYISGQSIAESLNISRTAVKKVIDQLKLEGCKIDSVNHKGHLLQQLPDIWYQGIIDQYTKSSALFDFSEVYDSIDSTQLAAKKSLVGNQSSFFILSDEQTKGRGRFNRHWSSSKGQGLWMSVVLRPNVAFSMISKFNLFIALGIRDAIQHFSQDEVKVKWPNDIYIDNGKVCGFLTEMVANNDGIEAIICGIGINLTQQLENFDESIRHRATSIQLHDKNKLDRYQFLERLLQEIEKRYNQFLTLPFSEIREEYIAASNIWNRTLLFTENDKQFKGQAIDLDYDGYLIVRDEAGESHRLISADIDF
Experiment: Enzyme Inhibition Assay
Details: pH 8; 37 °C
Procedure: The reaction was initiated by the addition of BPL to a final concentration of 4 nM. After 20 minutes at 37 C., 4 uL aliquots of the reaction were spotted onto Whatman paper pre-treated with biotin and trichloroacetic acid. The filters were washed twice with 10% v/v ice-cold trichloroacetic acid and once with ethanol before air-drying. Quantitation of protein-bound radiolabelled biotin was performed by liquid scintillation. One unit of enzyme activity was defined by the amount of BPL required to incorporate 1 nmol of biotin per minute. The IC50 value of each compound was determined.

Nc1ncnc2c1ncn2[C@@H]1O[C@H](COP(=O)(O)OCCCCC[C@@H]2SC[C@@H]3NC(=O)N[C@@H]32)[C@@H](O)[C@H]1O [US9108978, 2.02]
pIC50: 6.69
pKi: 7.52

— BindingDB's records for patent US9108978 (Monash University, 2015)
